Source: publication PMC6778101 (Nature Communications, 2019)
Entries after “also recorded” stand apart in the source; their conditions may differ. Like-named read-outs stand apart in the source and are kept apart here. Ends that are not written are not given here. Peptide text beside a SMILES is read from it.

Tests used:
[1] = tested on: E. coli ATCC 25922, S. enterica LT2, K. pneumoniae ATCC 10031, A. baumannii ATCC 17978; assay: Laboratory evolution in pathogenic bacteria, statements for all four pathogens together; type: cell-based; settings: all four pathogenic species
Text: (§1) The tested pathogens initially sensitive to the AMPs and the antibiotics included Escherichia coli (ATCC® 25922™) (abbreviated as E. coli ATCC 25922), Salmonella enterica subsp. enterica serovar Typhimurium LT2 (abbreviated as S. enterica LT2), Klebsiella pneumoniae subsp. pneumoniae (Schroeter) Trevisan (ATCC® 10031™) (abbreviated as K. pneumoniae ATCC 10031) and Acinetobacter baumannii Bouvet and Grimont (ATCC® 17978™) (abbreviated as A. baumannii ATCC 17978).
(§2) The evolutionary protocol was designed to avoid population extinction and to ensure that populations with the highest level of resistance were propagated further. Starting with a subinhibitory drug concentration (Supplementary Data 8), resulting in ~50% growth inhibition, 10 parallel populations per drug were allowed to grow in Minimal Salts medium for 72 h and 300 r.p.m. E. coli K-12 BW25113 and E. coli mutD5 populations were incubated at 30 °C, while E. coli ATCC 25922, S. enterica LT2, K. pneumonia ATCC 10031, and A. baumannii ATCC 17978 were incubated at 37 °C. […] Prior to each transfer, cell growth was monitored by measuring the optical density at 600 nm (OD600 value, Biotek Synergy 2 microplate reader). Only populations with the highest drug concentration (and reaching OD600 > 0.2) were selected for further evolution. A chess-board layout was used on the plate to monitor potential cross-contamination events. […] E. coli mutD5 was adapted to TPII, also in 10 parallel evolving populations.
(§3) MICs were determined using a standard serial broth dilution technique. Briefly, 11-step serial dilutions were prepared in 96-well microtiter plates with three replicates per strain and antimicrobial compound. Each experiment was repeated at least twice. […] Cell growth was monitored by measuring the optical density (OD600 value, Biotek Synergy 2 microplate reader was used for this purpose). […] Relative MIC was calculated as follows: MICrelative = MICevolved/MICcontrol.

E. coli ATCC 25922 [2] = assay: Laboratory evolution of resistance, MIC fold change of adapted lines; type: cell-based; settings: Escherichia coli ATCC 25922; parallel line 1 of 10
Text: as §1, §2, §3

K. pneumoniae ATCC 10031 = assay: as above; type: cell-based; settings: Klebsiella pneumoniae ATCC 10031; parallel line 1 of 10
Text: as §1, §2, §3

E.coli K-12 BW25113 = type: cell-based, Escherichia coli; settings: for MIC (freshly prepared AMP): plates inoculated immediately; for MIC (pre-incubated AMP): plates pre-incubated 72 hours before inoculation
Experimental: (§4) MICs were determined using a standard serial broth dilution technique. Briefly, 11-step serial dilutions were prepared in 96-well microtiter plates with three replicates per strain and antimicrobial compound. Each experiment was repeated at least twice. 5 × 10^5 cells/mL were inoculated into each well, and the plates were incubated at 30 °C in case of E. coli K-12 BW25113, and its antibiotic and AMP-adapted lines, or 37 °C in case of the other bacterial species. Plates were shaken at 300 r.p.m. during incubation for 24 and 18 h, respectively. Cell growth was monitored by measuring the optical density (OD600 value, Biotek Synergy 2 microplate reader was used for this purpose). […] Relative MIC was calculated as follows: MICrelative = MICevolved/MICcontrol.
Supplementary Table 7- Effect of incubation time on the minimum inhibitory concentration (MIC) of AMPs. We tested whether the prolonged incubation time can affect the MIC of AMPs. To test this, two sets of AMP containing MIC plates were prepared in parallel. The first set was immediately inoculated with E.coli K-12 BW25113, while the second set was pre-incubated 72 hours before inoculation with the […]
observed in the MIC between freshly prepared and pre-incubated plates. […]

E. coli mutD5 = assay: Laboratory evolution of resistance in mutator strain, MIC fold change; type: cell-based, Escherichia coli; settings: for MIC fold change after the evolution: mutD5 mutator strain (*)
Text: (§5) Unless otherwise indicated, we used E. coli K-12 BW25113 in all high-throughput experiments. To investigate the impact of mutation rate on evolution of AMP resistance, we initiated laboratory evolution with a mutator strain E. coli mutD5 that carries mutations in the dnaQ gene (L73W and A164V).
as §2, §4

[3] = tested on: E. coli K-12 BW25113 bearing the metagenomic plasmid library; assay: Functional metagenomic screen of a soil library, gradient plate selection; type: cell-based, Escherichia coli
Human red blood cells = settings: previous work; cited from earlier work
Text: Finally, our work identifies that TPII and CP1 are promising candidates for future therapeutic considerations, for the following reasons. They are active against a wide range of bacterial pathogens with a relatively high activity/toxicity (ATI) index. We note however, that existing data on the toxicity of the tachyplesin antimicrobial family are controversial[48],[59]–[61]. […] Furthermore, evolution of resistance against these AMPs is improbable in E. coli. We propos ...

E. coli ATCC 25922 [4] = type: cell-based, Escherichia coli; settings: Escherichia coli ATCC 25922; broth dilution, 37 °C, 18 h
Experimental: as §5, §4

[5] = tested on: Klebsiella pneumoniae NCTC 13440; type: cell-based; settings: broth dilution, 37 °C, 18 h
Experimental: as §5, §4

[6] = tested on: Methicillin-resistant Staphylococcus aureus subsp. aureus ATCC 43300; type: cell-based; settings: broth dilution, 37 °C, 18 h
Experimental: as §5, §4

[7] = tested on: Staphylococcus aureus subsp. aureus ATCC 29213; type: cell-based; settings: broth dilution, 37 °C, 18 h
Experimental: as §5, §4

[8] = tested on: Enterobacter cloacae subsp. cloacae ATCC 13047; type: cell-based; settings: broth dilution, 37 °C, 18 h
Experimental: as §5, §4

[9] = tested on: Escherichia coli NCTC 13351; type: cell-based; settings: broth dilution, 37 °C, 18 h
Experimental: as §5, §4

[10] = tested on: Escherichia coli ATCC BAA 2340; type: cell-based; settings: broth dilution, 37 °C, 18 h
Experimental: as §5, §4

[11] = tested on: Shigella sonnei HNCMB 25021; type: cell-based; settings: broth dilution, 37 °C, 18 h
Experimental: as §5, §4

[12] = tested on: Escherichia coli ATCC 35218; type: cell-based; settings: broth dilution, 37 °C, 18 h
Experimental: as §5, §4

[13] = tested on: Staphylococcus aureus subsp. aureus ATCC 25923; type: cell-based; settings: broth dilution, 37 °C, 18 h
Experimental: as §5, §4

[14] = tested on: Escherichia coli ATCC BAA 2469; type: cell-based; settings: broth dilution, 37 °C, 18 h
Experimental: as §5, §4

[15] = tested on: Enterococcus faecium ATCC 700221; type: cell-based; settings: broth dilution, 37 °C, 18 h
Experimental: as §5, §4

[16] = time allowed for bacterial growth 24 hours
[17] = time allowed for bacterial growth 48 hours
[18] = time allowed for bacterial growth 72 hours

In the case of `CC[C@H](C)[C@@H]1NC(=O)CNC(=O)[C@H](CCCNC(=N)N)NC(=O)[C@H](Cc2ccc(O)cc2)NC(=O)[C@@H]2CSSC[C@H](NC1=O)C(=O)N[C@@H](Cc1ccc(O)cc1)C(=O)N[C@@H](CCCNC(=N)N)C(=O)N[C@@H](CCCCN)C(=O)N[C@H](C(=O)N[C@@H](CCCNC(=N)N)C(N)=O)CSSC[C@H](NC(=O)[C@H](Cc1c[nH]c3ccccc13)NC(=O)[C@@H](N)CCCNC(=N)N)C(=O)N[C@@H](Cc1ccccc1)C(=O)N[C@@H](CCCNC(=N)N)C(=O)N[C@@H](C(C)C)C(=O)N2` [TPII, tachyplesin II] (HELM PEPTIDE1{R.W.C.F.R.V.C.Y.R.G.I.C.Y.R.K.C.R.[am]}$PEPTIDE1,PEPTIDE1,3:R3-16:R3|PEPTIDE1,PEPTIDE1,7:R3-12:R3$$$V2.0; N-terminus and C-terminus assumed; bridges inferred), the “resistance after laboratory evolution in pathogens (in words)” value [1] is reported as “very low levels”, the “MIC fold change following 20 transfers” value (E. coli ATCC 25922 [2]) is reported as 4.8 fold and the “MIC fold change following 20 transfers” value (K. pneumoniae ATCC 10031) is reported as 5.6 fold. For the same molecule, the “MIC (freshly prepared AMP)” value (E.coli K-12 BW25113; [16]) was 5 µg/mL, the “MIC (freshly prepared AMP)” value (E.coli K-12 BW25113; [17]) was 5 µg/mL and the “MIC (freshly prepared AMP)” value (E.coli K-12 BW25113; [18]) was 5 µg/mL. For the same molecule, the “MIC (pre-incubated AMP)” value (E.coli K-12 BW25113; [16]) was 6 µg/mL, the “MIC (pre-incubated AMP)” value (E.coli K-12 BW25113; [17]) was 6 µg/mL and the “MIC (pre-incubated AMP)” value (E.coli K-12 BW25113; [18]) was 6 µg/mL. The “resistance in evolved mutator populations (in words)” value (E. coli mutD5; 10 laboratory evolved E. coli K-12 mutD5 populations) was “none of the 10 laboratory evolved mutator E. coli K-12 mutD5 populations displayed resistance; also recorded: failed to develop resistance”, the “MIC fold change following 20 transfers” value (E. coli mutD5; Escherichia coli mutD5 mutator strain, parallel line 1 of 10) was 1.4 fold and the “MIC fold change after the evolution” value (E. coli mutD5; parallel-evolved line 1) was 1. The “MIC fold change after the evolution” value (E. coli mutD5; parallel-evolved line 2) was 1, the “MIC fold change after the evolution” value (E. coli mutD5; parallel-evolved line 3) was 1 and the “MIC fold change after the evolution” value (E. coli mutD5; parallel-evolved line 4) was 1. The “MIC fold change after the evolution” value (E. coli mutD5; parallel-evolved line 5) was 1, the “MIC fold change after the evolution” value (E. coli mutD5; parallel-evolved line 6) was 1 and the “MIC fold change after the evolution” value (E. coli mutD5; parallel-evolved line 7) was 1. The “MIC fold change after the evolution” value (E. coli mutD5; parallel-evolved line 8) was 1, the “MIC fold change after the evolution” value (E. coli mutD5; parallel-evolved line 9) was 1 and the “MIC fold change after the evolution” value (E. coli mutD5; parallel-evolved line 10) was 1. For the same molecule, the “resistant clones / resistance-conferring DNA segments from the soil metagenomic library (in words)” value [3] was “failed to find DNA segments that would provide resistance” and the “Number of resistant contig” value ([3]; soil metagenomic library, 1.5–5 kb fragments, gradient plate, 30 °C, 24 h) was 0.

For “SWLSKTAKKLENSAKKRISEGIAIAIQGGPR [CP1, Cecropin P1]”, the “toxicity or haemolytic activity (in words)” value (Human red blood cells) is listed as “negligible toxicity or haemolytic activity”, the MIC (E. coli ATCC 25922 [4]) is listed as 1.2 µM and the MIC [5] is listed as 1.2 µM. For the same molecule, the MIC [6] was > 9.6 µM, the MIC [7] was > 9.6 µM and the MIC [8] was > 9.6 µM. The MIC [9] was 0.6 to 1.2 µM, the MIC [10] was 1.2 µM and the MIC [11] was 0.6 to 1.2 µM. The MIC [12] was 1.2 µM, the MIC [13] was > 9.6 µM and the MIC [14] was 1.2 µM. The MIC [15] was > 9.6 µM.
